Data reported in article PMC12973313 (Chemical Science, 2026).
≈ marks a conversion by molar mass, not a printed value. Like-named read-outs stand apart in the source and are kept apart here.

Assays:
E. Faecalis NCTC 775 = assay: MIC assay; type: cell-based, Enterococcus faecalis; settings: for MIC: Enterococcus faecalis, NCTC775, lowest concentration with no visible growth
Description: Section S3: Biological methods […]
Preparation of bacterial plates : Sterile TSB agar plates were streaked using the desired bacteria [Staphylococcus aureus (9144, 13616, USA 300 and 1199B ), Enterococcus faecalis (NCTC 775 and 12201 ) and Enterococcus faecium (NCTC 12204)] and incubated at 37 °C […]
Preparation of inoculum: An initial culture was made up by inoculating TSB (5 mL) with 3 single colonies of the desired bacteria under sterile conditions and incubated at 37 °C overnight. The optical density at 600 nm (OD 600) was adjusted using sterile distilled H 2O (dH2O) to equal ~1 x 10^6 bacteria/mL.
Preparation of 96 -well microplate : A solution of each compound in H2O/5 % EtOH was made […]
. The compound solution (200
[…]. The bacterial suspension (100 µL) was dispensed into each well under sterile conditions. The plates were sealed using parafilm and incubated at 37 °C for 20 hours, after which the OD 600 was measured.

[1] = tested on: A2780 CisR cisplatin resistant ovarian cancer cells; assay: GI50 determination, SRB assay; type: cell-based, human; settings: read-out: Mean GI50 (μM) A2780 CisR SRB Assays
Description: (§1) GI50 determination assays
(§2) Cell culture: The RPE-1 retinal pigment epithelial, A2780 human ovarian carcinoma, and A2780 CisR cisplatin resistant human ovarian carcinoma cell lines were donated with thanks from the Institute of Cancer Research. The A2780 and A2780 CisR cell lines were cultured in IMDM supplemented with 10 % FBS at 37 °C and 5 % CO2, while the RPE-1 cell line was cultured in a 1:1 mixture of Dulbecco's Modified Eagle Medium and Ham’s F-12 Nutrient Mixture (DMEM/F-12) at 37 °C and 5 % CO2.
(§3) SRB assay: Cells were seeded into 96-well plates at 800 cells per well/cpw (A2780), 1600 cpw (A2780 CisR) or 400 cpw (RPE-1) in cell culture medium and cultured for 48 hours followed by addition of each compound over an eight-point concentration range (each concentration in triplicate). Plates were then cultured for a further 96 hours, after which the cell culture […]
(§4) medium was removed from each well and the cells fixed with addition of 70 µL/well of 10 % (w/v) trichloroacetic acid (TCA) in distilled water followed by incubation for 30 minutes at RT.
(§5) Each plate was then washed with distilled water five times before addition of 70 µL SRB dye (0.4 % (w/v) SRB dye (ThermoFisher Scientific, USA) solubilised in 1 % (v/v) acetic acid/ dH2O) and incubat ed for 30 minutes at RT, followed by washing three times with 1 % (v/v) acetic acid and drying in a 37 °C oven overnight. Once dry, 100 μl of 10 mM Tris -base (ThermoFisher Scientific, USA) was added to each well and plates put on a microplate shaker for 10 minutes at 200 rpm to solubilize the dye. Absorbance values were then read at wavelength 490 nm on a Victor X4 multi-label plate reader (PerkinElmer Life Sciences, USA), data analysed using Microsoft Excel and graphs produced using GraphPad Prism 9.0 and the GI50 value calculated.
(§6) Solutions and compo und preparation: All solvents and starting materials were purchased from known chemical suppliers. Compound stock solutions were prepared in DMSO. Buffer […]
(§7) 500 mM. Buffer B consisted of Na2SO4 (167 mM) and NaOAc (5 mM) with a pH of 5.5 and an ionic strength of 500 mM.
(§8) Vesicle formation: Giant unilamellar Vesicles (GUVS) were prepared through the electro formation method using a Nanion VesiclePrepPro. A solution of 1,2-diphytanoyl-sn-glycero-3-phosphocholine (DPhPC) (10 mM) with 10 % cholesterol in chloroform (20 µL) was deposited onto an ITO coated glass surface (surface coated glass slide) and allowed to evaporate to create a dehydrated thin lipid film. A greased O-ring was then placed around the dehydrated lipid film to create a seal. This volume was then filled with a sucrose solution (275 µL, 200 mM) and then sealed with a second ITO coated glass slide. An AC current (3 V/5 Hz) was then applied. After 2 hrs, the voltage and frequency were reduced in steps over 30 mins to 1.6 V/1 Hz and held for 1 hr before being reduced to 0 V/0 Hz over a further 30 min […]
(§9) Patch clamp measurements: Experiments were performed using a Port-a-Patch system (Nanion Technologies) with borosilicate glass chips that contain an aperture diameter of approximately 1 µm. Buffer A (5 µL) was placed on the underside of the chip over the aperture, The chip was then placed into the port-a-patch system. Buffer A (15 µL) was then added to the top of the chip and 5 µL of the GUV stock solution added. The GUVS were the positioned over the aperture in the chip by application of negative pressure (-30 mbar).
(§10) When a GUV is positioned over the aperture in the chip, it bursts, leaving a planar bilayer as a seal. The negative pressure is then removed, leaving the planar bilayer in place over the aperture. The external buffer A was the exchanged with buffer B, through four simultaneous […]
(§11) buffer exchanges (4 x 15 µL). […]
(§12) = 30 s, to give a final experimental concentration of 0.1 – 1 mM as appropriate. The number of sweeps was set to 1000, the sweep interval to 0.00 s, sample interval to 1.00 ms and the protocol was run for a total of 5 mins. Each experiment was repeated a minimum of three time to ensure reproducibility.

[2] = tested on: A2780 ovarian cancer cells; assay: GI50 determination, SRB assay; type: cell-based, human; settings: for GI50: 96 hours, read-out: Mean GI50 (μM) A2780 SRB Assays
Description: as §1, §2, §3, §4, §5, §6, §7, §8, §9, §10, §11, §12

RPE-1 cells = assay: GI50 determination, SRB assay; type: cell-based, human; settings: read-out: Mean GI50 (μM) RPE-1 SRB Assays
Description: as §1, §2, §3, §4, §5, §6, §7, §8, §9, §10, §11, §12

[3] = tested on: Galleria mellonella larvae; assay: G. mellonella toxicity assay; type: in vivo; settings: out of 10, 10 µL of 5 mM in H2O/EtOH 19:1, 37 °C
Description: Finally, we gauged the toxicity of SSAs 1, 3, 5, 7, and 9 as either homogenous solutions or heterogenous (1 : 1) enantiomeric mixtures towards multicellular organisms which have an intrinsic immune system.[66] Here, Galleria mellonella larvae were injected with 10 µL of SSA (5 mM) in a distilled H2O/EtOH 19 : 1 solution and then incubated at 37 °C for a maximum of five days and the number of surviving larvae recorded each day. […]. […]
G. mellonella treatment assay: G. mellonella larvae were purchased from Livefood UK Ltd.
(Rooks Bridge, UK) and maintained on wood chips in the dark at 15 °C until use. Galleria
larvae were injected with 10 µL of compound in H2O/5 % EtOH, incubated at 37 °C for 5 days
and the deaths counted. Groups of 10 Galleria were injected per compound. […]

O=C(O)CNC(=O)Nc1ccc(C(F)(F)F)cc1 [SSA 1]
MIC (E. Faecalis NCTC 775): > 2.78 mM | GI50 ([1]; Homo sapiens, A2780cisR, 96 h): 367 µM | GI50 ([2]; Homo sapiens, A2780, 96 h): 117 µM | GI50 (RPE-1 cells; Homo sapiens, RPE-1, 96 h): 296 µM | Galleria moth larvae survived Day 1 [3]: 10 | Galleria moth larvae survived Day 2 [3]: 9 | Galleria moth larvae survived Day 3 [3]: 8 | Galleria moth larvae survived Day 4 [3]: 6 | Galleria moth larvae survived Day 5 [3]: 6

CC(C)CC(NC(=O)Nc1ccc(C(F)(F)F)cc1)C(=O)O (stereo not shown) [SSA 3]
MIC (E. Faecalis NCTC 775): > 2.78 mM | GI50 ([1]; Homo sapiens, A2780cisR, 96 h): 276 µM | GI50 ([2]; Homo sapiens, A2780, 96 h): 171 µM | GI50 (RPE-1 cells; Homo sapiens, RPE-1, 96 h): > 500 µM | Galleria moth larvae survived Day 2 [3]: 9 | Galleria moth larvae survived Day 1 ([3]; listed as 3): 9 | Galleria moth larvae survived Day 3 ([3]; listed as 3): 9 | Galleria moth larvae survived Day 4 ([3]; listed as 3): 6 | Galleria moth larvae survived Day 5 ([3]; listed as 3): 5

CC(C)CC(NC(=O)Nc1ccc(C(F)(F)F)cc1)C(=O)O (stereo not shown) [SSA 5]
MIC (mM) E. Faecalis NCTC 775 (E. Faecalis NCTC 775; lowest concentration with no visible growth, listed as 5): 2.780 mM (≈ 885 µg/mL) | GI50 ([1]; 96 hours): 498 µM | GI50 [2]: 231 µM | GI50 (RPE-1 cells; 96 hours): > 375 µM | Galleria moth larvae survived Day 2 [3]: 9 | Galleria moth larvae survived Day 1 ([3]; listed as 5): 10 | Galleria moth larvae survived Day 3 ([3]; listed as 5): 8 | Galleria moth larvae survived Day 4 ([3]; listed as 5): 8 | Galleria moth larvae survived Day 5 ([3]; listed as 5): 8

O=C(Nc1ccc(C(F)(F)F)cc1)N[C@@H](Cc1ccccc1)C(=O)O [SSA 7]
MIC (E. Faecalis NCTC 775): > 2.78 mM | GI50 ([1]; Homo sapiens, A2780cisR, 96 h): 356 µM | GI50 ([2]; Homo sapiens, A2780, 96 h): 178 µM | GI50 (RPE-1 cells; Homo sapiens, RPE-1, 96 h): > 375 µM | Galleria moth larvae survived Day 1 [3]: 10 | Galleria moth larvae survived Day 2 [3]: 4 | Galleria moth larvae survived Day 3 [3]: 4 | Galleria moth larvae survived Day 4 [3]: 4 | Galleria moth larvae survived Day 5 [3]: 4

O=C(Nc1ccc(C(F)(F)F)cc1)N[C@H](Cc1ccccc1)C(=O)O [SSA 9]
MIC (E. Faecalis NCTC 775): 2.78 mM (≈ 979 µg/mL) | GI50 ([1]; Homo sapiens, A2780cisR, 96 h): 197 µM | GI50 ([2]; Homo sapiens, A2780, 96 h): 105 µM | selectivity for the cancer cells over the RPE-1 cells ([2]; no impact on RPE-1 cell growth at 350 µM): ≥ two-fold | GI50 (RPE-1 cells; Homo sapiens, RPE-1, 96 h): > 375 µM | Galleria moth larvae survived Day 1 [3]: 9 | Galleria moth larvae survived Day 2 [3]: 9 | Galleria moth larvae survived Day 3 [3]: 9 | Galleria moth larvae survived Day 4 [3]: 7 | Galleria moth larvae survived Day 5 [3]: 5
